{
  "source": "ChEMBL document CHEMBL4804286",
  "about": "“3-amino-4-(4-(4 (dimethylcarbamoyl) phenyl)-1,4-diazepan-1-yl) thieno [2,3-b] pyridine-2-carboxamide for use in cancer therapy and formulations comprising the same” (2020)",
  "key": {"[1]": {"molecular_target": "Mitogen-activated protein kinase kinase kinase 15 (Homo sapiens) (UniProt Q6ZN16)", "experiment": "Inhibition of human MAP3K15 assessed as percent of control at 2000 nM by KINOMEscan assay relative to control", "design": "scale not given: the % may be the effect or the level left"}, "[2]": {"molecular_target": "Myosin light chain kinase family member 4 (Homo sapiens) (UniProt Q86YV6)", "sequence (Q86YV6 whole entry)": "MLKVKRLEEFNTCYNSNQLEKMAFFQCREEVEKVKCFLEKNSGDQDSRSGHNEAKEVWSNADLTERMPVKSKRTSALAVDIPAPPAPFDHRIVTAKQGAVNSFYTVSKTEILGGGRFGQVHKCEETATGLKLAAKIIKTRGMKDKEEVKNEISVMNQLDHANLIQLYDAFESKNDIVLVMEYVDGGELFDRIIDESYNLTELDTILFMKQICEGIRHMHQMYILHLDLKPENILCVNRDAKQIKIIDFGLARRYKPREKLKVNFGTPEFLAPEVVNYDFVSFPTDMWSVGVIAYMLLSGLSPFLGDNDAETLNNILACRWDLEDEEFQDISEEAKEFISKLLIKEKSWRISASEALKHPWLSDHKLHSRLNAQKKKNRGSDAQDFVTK", "experiment": "Inhibition of human MYLK4 assessed as percent of control at 2000 nM by KINOMEscan assay relative to control", "design": "scale not given: the % may be the effect or the level left"}, "[3]": {"molecular_target": "Tyrosine-protein kinase ABL1 (Homo sapiens) (UniProt P00519)", "experiment": "Inhibition of phosphorylated human ABL1 assessed as percent of control at 2000 nM by KINOMEscan assay relative to control", "design": "scale not given: the % may be the effect or the level left"}, "[4]": {"molecular_target": "Serine/threonine-protein kinase 35 (Homo sapiens) (UniProt Q8TDR2)", "experiment": "Inhibition of human STK35 assessed as percent of control at 2000 nM by KINOMEscan assay relative to control", "design": "scale not given: the % may be the effect or the level left"}, "[5]": {"molecular_target": "Interleukin-1 receptor-associated kinase 4 (Homo sapiens) (UniProt Q9NWZ3)", "experiment": "Inhibition of human IRAK4 assessed as percent of control at 2000 nM by KINOMEscan assay relative to control", "design": "scale not given: the % may be the effect or the level left"}, "[6]": {"molecular_target": "Dual specificity mitogen-activated protein kinase kinase 2 (Homo sapiens) (UniProt P36507)", "experiment": "Inhibition of human MEK2 assessed as percent of control at 2000 nM by KINOMEscan assay relative to control", "design": "scale not given: the % may be the effect or the level left"}, "[7]": {"molecular_target": "Protein odd-skipped-related 1 (Homo sapiens) (UniProt Q8TAX0)", "experiment": "Inhibition of human OSR1 assessed as percent of control at 2000 nM by KINOMEscan assay relative to control", "design": "scale not given: the % may be the effect or the level left"}, "[8]": {"tested_on": "Tyrosine-protein kinase ABL1 (Homo sapiens), P00519 [E255K]", "experiment": "Inhibition of phosphorylated human ABL1 E255K mutant assessed as percent of control at 2000 nM by KINOMEscan assay relative to control", "design": "scale not given: the % may be the effect or the level left"}, "[9]": {"molecular_target": "RAC-beta serine/threonine-protein kinase (Homo sapiens) (UniProt P31751)", "experiment": "Inhibition of human AKT2 assessed as percent of control at 2000 nM by KINOMEscan assay relative to control", "design": "scale not given: the % may be the effect or the level left"}, "[10]": {"molecular_target": "Mast/stem cell growth factor receptor Kit (Homo sapiens) (UniProt P10721)", "sequence (P10721 whole entry)": "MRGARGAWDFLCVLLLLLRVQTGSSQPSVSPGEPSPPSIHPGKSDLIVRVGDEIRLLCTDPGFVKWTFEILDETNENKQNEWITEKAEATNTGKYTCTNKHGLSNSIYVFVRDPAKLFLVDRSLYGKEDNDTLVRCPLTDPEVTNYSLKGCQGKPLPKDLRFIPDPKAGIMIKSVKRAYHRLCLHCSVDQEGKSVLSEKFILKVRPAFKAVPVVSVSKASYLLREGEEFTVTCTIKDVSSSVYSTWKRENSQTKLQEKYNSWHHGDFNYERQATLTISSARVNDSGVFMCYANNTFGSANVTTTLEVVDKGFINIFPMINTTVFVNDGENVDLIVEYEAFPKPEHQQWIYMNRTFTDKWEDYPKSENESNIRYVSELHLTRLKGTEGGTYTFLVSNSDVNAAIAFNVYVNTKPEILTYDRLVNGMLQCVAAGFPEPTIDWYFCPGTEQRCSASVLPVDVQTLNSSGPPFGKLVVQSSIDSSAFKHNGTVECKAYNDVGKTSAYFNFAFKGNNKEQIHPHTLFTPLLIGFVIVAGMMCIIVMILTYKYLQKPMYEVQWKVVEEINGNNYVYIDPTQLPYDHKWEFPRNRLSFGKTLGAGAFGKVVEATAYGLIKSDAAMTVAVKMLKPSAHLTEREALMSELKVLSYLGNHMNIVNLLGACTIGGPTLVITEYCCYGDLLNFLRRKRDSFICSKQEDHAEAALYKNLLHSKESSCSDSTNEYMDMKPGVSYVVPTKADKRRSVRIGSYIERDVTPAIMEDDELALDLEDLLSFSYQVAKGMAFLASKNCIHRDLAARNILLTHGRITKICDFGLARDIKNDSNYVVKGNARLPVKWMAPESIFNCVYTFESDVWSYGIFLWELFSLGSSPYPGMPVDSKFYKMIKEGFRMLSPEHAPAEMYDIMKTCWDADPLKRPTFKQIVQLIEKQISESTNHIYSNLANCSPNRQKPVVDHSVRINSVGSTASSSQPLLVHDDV", "experiment": "Inhibition of human KIT assessed as percent of control at 2000 nM by KINOMEscan assay relative to control", "design": "scale not given: the % may be the effect or the level left"}, "[11]": {"molecular_target": "Serine/threonine-protein kinase MARK1 (Homo sapiens) (UniProt Q9P0L2)", "experiment": "Inhibition of human MARK1 assessed as percent of control at 2000 nM by KINOMEscan assay relative to control", "design": "scale not given: the % may be the effect or the level left"}, "[12]": {"molecular_target": "SRSF protein kinase 2 (Homo sapiens) (UniProt P78362)", "experiment": "Inhibition of human SRPK2 assessed as percent of control at 2000 nM by KINOMEscan assay relative to control", "design": "scale not given: the % may be the effect or the level left"}, "[13]": {"tested_on": "Phosphatidylinositol 4,5-bisphosphate 3-kinase catalytic subunit alpha isoform (Homo sapiens), P42336 [E545A]", "sequence (P42336 whole entry E545A, canonical isoform)": "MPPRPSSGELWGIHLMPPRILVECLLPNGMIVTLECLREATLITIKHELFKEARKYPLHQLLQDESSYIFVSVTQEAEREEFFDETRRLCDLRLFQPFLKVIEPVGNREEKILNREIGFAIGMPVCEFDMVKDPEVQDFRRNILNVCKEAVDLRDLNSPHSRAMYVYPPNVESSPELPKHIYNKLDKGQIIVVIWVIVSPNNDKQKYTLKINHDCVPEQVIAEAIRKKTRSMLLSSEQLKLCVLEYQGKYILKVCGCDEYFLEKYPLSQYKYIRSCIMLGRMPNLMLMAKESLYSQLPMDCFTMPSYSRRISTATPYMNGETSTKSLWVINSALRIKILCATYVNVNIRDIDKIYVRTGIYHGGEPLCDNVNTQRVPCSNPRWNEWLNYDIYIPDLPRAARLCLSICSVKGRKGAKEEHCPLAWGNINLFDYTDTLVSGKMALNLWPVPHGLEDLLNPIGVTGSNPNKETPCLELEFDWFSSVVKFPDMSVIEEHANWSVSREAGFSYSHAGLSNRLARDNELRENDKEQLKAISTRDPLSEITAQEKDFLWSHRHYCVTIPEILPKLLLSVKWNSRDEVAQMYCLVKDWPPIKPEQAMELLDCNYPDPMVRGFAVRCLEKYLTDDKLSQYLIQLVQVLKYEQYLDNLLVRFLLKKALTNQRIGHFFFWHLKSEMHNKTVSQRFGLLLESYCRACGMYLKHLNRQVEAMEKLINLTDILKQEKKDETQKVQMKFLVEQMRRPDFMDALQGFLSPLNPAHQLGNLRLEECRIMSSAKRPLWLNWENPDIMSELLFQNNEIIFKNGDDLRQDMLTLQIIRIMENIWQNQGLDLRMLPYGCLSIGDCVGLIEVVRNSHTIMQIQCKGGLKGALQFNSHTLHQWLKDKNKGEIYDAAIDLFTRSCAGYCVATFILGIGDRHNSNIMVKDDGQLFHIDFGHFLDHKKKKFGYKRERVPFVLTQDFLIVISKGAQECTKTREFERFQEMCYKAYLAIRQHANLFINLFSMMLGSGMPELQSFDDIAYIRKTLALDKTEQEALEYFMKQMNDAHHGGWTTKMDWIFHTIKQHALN", "experiment": "Inhibition of human PIK3CA E545A mutant assessed as percent of control at 2000 nM by KINOMEscan assay relative to control", "design": "scale not given: the % may be the effect or the level left"}, "[14]": {"molecular_target": "Leukocyte tyrosine kinase receptor (Homo sapiens) (UniProt P29376)", "experiment": "Inhibition of human LTK assessed as percent of control at 2000 nM by KINOMEscan assay relative to control", "design": "scale not given: the % may be the effect or the level left"}, "[15]": {"molecular_target": "Inhibitor of nuclear factor kappa-B kinase subunit epsilon (Homo sapiens) (UniProt Q14164)", "experiment": "Inhibition of human IKK-epsilon assessed as percent of control at 2000 nM by KINOMEscan assay relative to control", "design": "scale not given: the % may be the effect or the level left"}, "[16]": {"molecular_target": "Testis-specific serine/threonine-protein kinase 1 (Homo sapiens) (UniProt Q9BXA7)", "experiment": "Inhibition of human TSSK1B assessed as percent of control at 2000 nM by KINOMEscan assay relative to control", "design": "scale not given: the % may be the effect or the level left"}, "[17]": {"molecular_target": "Serine/threonine-protein kinase Nek4 (Homo sapiens) (UniProt P51957)", "experiment": "Inhibition of human NEK4 assessed as percent of control at 2000 nM by KINOMEscan assay relative to control", "design": "scale not given: the % may be the effect or the level left"}, "[18]": {"molecular_target": "Cyclin-dependent kinase 8 (Homo sapiens) (UniProt P49336)", "experiment": "Inhibition of human CDK8 assessed as percent of control at 2000 nM by KINOMEscan assay relative to control", "design": "scale not given: the % may be the effect or the level left", "conditions": "INHIBITOR"}, "[19]": {"tested_on": "Serine/threonine-protein kinase B-raf (Homo sapiens), P15056 [V600E]", "experiment": "Inhibition of human BRAF V600E mutant assessed as percent of control at 2000 nM by KINOMEscan assay relative to control", "design": "scale not given: the % may be the effect or the level left"}, "[20]": {"molecular_target": "Activin receptor type-2A (Homo sapiens) (UniProt P27037)", "experiment": "Inhibition of human ACVR2A assessed as percent of control at 2000 nM by KINOMEscan assay relative to control", "design": "scale not given: the % may be the effect or the level left"}, "[21]": {"molecular_target": "Mitogen-activated protein kinase kinase kinase kinase 4 (Homo sapiens) (UniProt O95819)", "experiment": "Inhibition of human MAP4K4 assessed as percent of control at 2000 nM by KINOMEscan assay relative to control", "design": "scale not given: the % may be the effect or the level left"}, "4T1": {"tested_on": "4T1", "experiment": "Antitumor activity against murine 4T1 cells xenografted in mouse assessed as suppression of tumor volume at 25 mg/kg, po administered twice a day", "type": "functional, organism-based"}, "[22]": {"molecular_target": "Serine/threonine-protein kinase DCLK1 (Homo sapiens) (UniProt O15075)", "experiment": "Inhibition of human DCAMKL1 assessed as percent of control at 2000 nM by KINOMEscan assay relative to control", "design": "scale not given: the % may be the effect or the level left"}, "[23]": {"molecular_target": "BMP-2-inducible protein kinase (Homo sapiens) (UniProt Q9NSY1)", "experiment": "Inhibition of human BIKE assessed as percent of control at 2000 nM by KINOMEscan assay relative to control", "design": "scale not given: the % may be the effect or the level left"}, "[24]": {"molecular_target": "Serine/threonine-protein kinase DCLK2 (Homo sapiens) (UniProt Q8N568)", "sequence (Q8N568 whole entry)": "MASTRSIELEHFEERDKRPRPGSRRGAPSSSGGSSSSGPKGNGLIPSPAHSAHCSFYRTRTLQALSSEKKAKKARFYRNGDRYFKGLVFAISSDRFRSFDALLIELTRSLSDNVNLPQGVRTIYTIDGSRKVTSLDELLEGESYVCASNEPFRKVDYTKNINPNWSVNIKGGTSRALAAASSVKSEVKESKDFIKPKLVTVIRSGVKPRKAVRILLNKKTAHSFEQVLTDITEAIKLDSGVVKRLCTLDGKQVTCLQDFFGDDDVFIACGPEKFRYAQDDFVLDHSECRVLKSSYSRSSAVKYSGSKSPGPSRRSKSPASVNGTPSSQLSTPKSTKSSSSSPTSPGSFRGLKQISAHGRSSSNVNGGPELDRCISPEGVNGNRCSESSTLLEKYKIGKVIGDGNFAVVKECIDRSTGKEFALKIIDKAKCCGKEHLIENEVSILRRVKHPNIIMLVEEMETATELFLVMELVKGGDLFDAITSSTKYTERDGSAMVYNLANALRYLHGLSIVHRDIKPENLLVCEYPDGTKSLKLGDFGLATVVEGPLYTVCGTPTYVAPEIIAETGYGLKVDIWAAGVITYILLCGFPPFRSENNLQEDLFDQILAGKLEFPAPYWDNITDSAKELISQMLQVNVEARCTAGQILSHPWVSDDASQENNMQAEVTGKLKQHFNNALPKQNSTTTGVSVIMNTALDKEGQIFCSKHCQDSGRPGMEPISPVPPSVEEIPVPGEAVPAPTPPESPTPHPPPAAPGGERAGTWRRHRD", "experiment": "Inhibition of human DCAMKL2 assessed as percent of control at 2000 nM by KINOMEscan assay relative to control", "design": "scale not given: the % may be the effect or the level left"}, "[25]": {"molecular_target": "Myosin-IIIb (Homo sapiens) (UniProt Q8WXR4)", "experiment": "Inhibition of human MYO3B assessed as percent of control at 2000 nM by KINOMEscan assay relative to control", "design": "scale not given: the % may be the effect or the level left"}, "[26]": {"molecular_target": "Serine/threonine-protein kinase 33 (Homo sapiens) (UniProt Q9BYT3)", "sequence (Q9BYT3 whole entry, looked up)": "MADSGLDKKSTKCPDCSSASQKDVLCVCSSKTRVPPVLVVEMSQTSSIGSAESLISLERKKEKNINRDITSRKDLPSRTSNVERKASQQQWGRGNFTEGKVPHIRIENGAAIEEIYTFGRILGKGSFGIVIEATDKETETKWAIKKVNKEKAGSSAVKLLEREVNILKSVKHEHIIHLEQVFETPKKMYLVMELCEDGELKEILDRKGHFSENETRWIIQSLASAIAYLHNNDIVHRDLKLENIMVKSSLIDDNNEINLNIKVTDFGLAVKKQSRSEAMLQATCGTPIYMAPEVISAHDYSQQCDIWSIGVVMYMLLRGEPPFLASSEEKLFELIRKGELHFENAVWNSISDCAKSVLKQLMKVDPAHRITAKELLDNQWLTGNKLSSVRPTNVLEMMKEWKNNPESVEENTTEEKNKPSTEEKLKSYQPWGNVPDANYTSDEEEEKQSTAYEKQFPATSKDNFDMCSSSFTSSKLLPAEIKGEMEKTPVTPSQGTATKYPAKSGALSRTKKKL", "experiment": "Inhibition of human STK33 assessed as percent of control at 2000 nM by KINOMEscan assay relative to control", "design": "scale not given: the % may be the effect or the level left"}, "[27]": {"molecular_target": "cAMP-dependent protein kinase catalytic subunit alpha (Homo sapiens) (UniProt P17612)", "experiment": "Inhibition of human PKAC-alpha assessed as percent of control at 2000 nM by KINOMEscan assay relative to control", "design": "scale not given: the % may be the effect or the level left"}, "[28]": {"molecular_target": "Receptor tyrosine-protein kinase erbB-4 (Homo sapiens) (UniProt Q15303)", "sequence (Q15303 whole entry)": "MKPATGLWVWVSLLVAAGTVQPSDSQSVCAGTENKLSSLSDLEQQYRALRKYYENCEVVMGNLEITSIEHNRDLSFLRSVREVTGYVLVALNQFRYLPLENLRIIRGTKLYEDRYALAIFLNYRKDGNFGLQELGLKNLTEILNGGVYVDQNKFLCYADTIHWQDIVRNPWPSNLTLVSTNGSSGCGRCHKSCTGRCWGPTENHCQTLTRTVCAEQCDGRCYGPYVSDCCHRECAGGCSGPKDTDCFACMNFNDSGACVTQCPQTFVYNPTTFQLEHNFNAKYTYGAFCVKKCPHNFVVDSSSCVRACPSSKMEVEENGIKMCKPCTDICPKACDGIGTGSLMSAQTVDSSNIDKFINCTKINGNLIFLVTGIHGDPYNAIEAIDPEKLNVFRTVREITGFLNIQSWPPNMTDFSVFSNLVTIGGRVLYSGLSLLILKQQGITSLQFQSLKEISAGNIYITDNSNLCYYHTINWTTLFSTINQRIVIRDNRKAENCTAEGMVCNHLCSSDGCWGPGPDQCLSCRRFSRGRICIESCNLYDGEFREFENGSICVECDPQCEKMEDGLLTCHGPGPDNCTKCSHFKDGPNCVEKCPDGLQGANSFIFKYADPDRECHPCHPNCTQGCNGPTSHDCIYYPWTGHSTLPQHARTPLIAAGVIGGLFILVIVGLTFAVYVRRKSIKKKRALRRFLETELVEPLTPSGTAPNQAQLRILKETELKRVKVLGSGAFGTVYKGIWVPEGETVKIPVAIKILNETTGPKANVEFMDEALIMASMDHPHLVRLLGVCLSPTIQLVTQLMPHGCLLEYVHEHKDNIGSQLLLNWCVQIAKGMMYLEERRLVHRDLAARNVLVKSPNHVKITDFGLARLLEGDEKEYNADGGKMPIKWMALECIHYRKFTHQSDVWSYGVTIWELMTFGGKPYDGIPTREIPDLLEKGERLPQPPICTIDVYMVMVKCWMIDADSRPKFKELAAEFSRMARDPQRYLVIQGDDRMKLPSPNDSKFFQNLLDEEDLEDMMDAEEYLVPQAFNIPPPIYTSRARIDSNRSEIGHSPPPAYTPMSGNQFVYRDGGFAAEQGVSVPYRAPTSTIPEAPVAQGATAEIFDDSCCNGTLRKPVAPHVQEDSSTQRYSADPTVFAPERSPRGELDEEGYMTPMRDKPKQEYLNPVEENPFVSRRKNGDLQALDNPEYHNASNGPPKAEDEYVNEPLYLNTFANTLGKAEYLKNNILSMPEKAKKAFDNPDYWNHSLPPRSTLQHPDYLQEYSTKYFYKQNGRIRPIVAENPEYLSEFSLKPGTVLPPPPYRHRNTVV", "experiment": "Inhibition of human ERBB4 assessed as percent of control at 2000 nM by KINOMEscan assay relative to control", "design": "scale not given: the % may be the effect or the level left"}, "[29]": {"molecular_target": "Mast/stem cell growth factor receptor Kit (Homo sapiens) (UniProt P10721)", "experiment": "Inhibition of human autoinhibited KIT assessed as percent of control at 2000 nM by KINOMEscan assay relative to control", "design": "scale not given: the % may be the effect or the level left"}, "[30]": {"tested_on": "ALK tyrosine kinase receptor (Homo sapiens), Q9UM73 [C1156Y]", "experiment": "Inhibition of human ALK C1156Y mutant assessed as percent of control at 2000 nM by KINOMEscan assay relative to control", "design": "scale not given: the % may be the effect or the level left"}},
  "note": "Several values for one entry are separate records, joined by “and”; a condition that tells them apart may be missing. Equal values may be shown once. Activity calls are given as the source filed them. No cut-off for these calls is given here.",
  "data": [
    {"smiles": "CN(C)C(=O)c1ccc(N2CCCN(c3ccnc4sc(C(N)=O)c(N)c34)CC2)cc1", "values": [
      {"measurement": "Activity", "setting": "[1]", "result": "97% and 92%"},
      {"measurement": "Activity", "setting": "[2]", "result": "100% and 94%"},
      {"measurement": "Activity", "setting": "[3]", "result": "90% and 77%"},
      {"measurement": "Activity", "setting": "[4]", "result": "87% and 93%"},
      {"measurement": "Activity", "setting": "[5]", "result": "89% and 78%"},
      {"measurement": "Activity", "setting": "[6]", "result": "88% and 82%"},
      {"measurement": "Activity", "setting": "[7]", "result": "100% and 88%"},
      {"measurement": "Activity", "setting": "[8]", "result": "100% and 82%"},
      {"measurement": "Activity", "setting": "[9]", "result": "86% and 99%"},
      {"measurement": "Activity", "setting": "[10]", "result": 95, "unit": "%"},
      {"measurement": "Activity", "setting": "[11]", "result": 100, "unit": "%"},
      {"measurement": "Activity", "setting": "[12]", "result": "93% and 100%"},
      {"measurement": "Activity", "setting": "[13]", "result": "100% and 92%"},
      {"measurement": "Activity", "setting": "[14]", "result": "90% and 77%"},
      {"measurement": "Activity", "setting": "[15]", "result": 100, "unit": "%"},
      {"measurement": "Activity", "setting": "[16]", "result": "80% and 99%"},
      {"measurement": "Activity", "setting": "[17]", "result": "100% and 95%"},
      {"measurement": "Activity", "setting": "[18]", "result": "2.6% and 0.25%"},
      {"measurement": "Activity", "setting": "[19]", "result": "100% and 84%"},
      {"measurement": "Activity", "setting": "[20]", "result": "95% and 92%"},
      {"measurement": "Activity", "setting": "[21]", "result": "100% and 93%"},
      {"measurement": "Activity", "setting": "4T1", "result": "Active"},
      {"measurement": "Activity", "setting": "[22]", "result": "100% and 89%"},
      {"measurement": "Activity", "setting": "[23]", "result": "100% and 96%"},
      {"measurement": "Activity", "setting": "[24]", "result": 100, "unit": "%"},
      {"measurement": "Activity", "setting": "[25]", "result": "87% and 100%"},
      {"measurement": "Activity", "setting": "[26]", "result": 100, "unit": "%"},
      {"measurement": "Activity", "setting": "[27]", "result": "95% and 100%"},
      {"measurement": "Activity", "setting": "[28]", "result": "85% and 100%"},
      {"measurement": "Activity", "setting": "[29]", "result": 90, "unit": "%"},
      {"measurement": "Activity", "setting": "[30]", "result": "100% and 78%"}
    ]}
  ]
}
